Experimental data published in the NIST ThermoML archive (doi:10.1016/j.tca.2018.08.015).

What was measured:
[1] = molar heat capacity at constant pressure; settings: 101.33 kPa, DSC
[2] = Molar enthalpy of transition or fusion; settings: Crystal; DSC
[3] = for Glass transition temperature: DSC

c1ccc(-c2cccc(-c3ccccc3)c2)cc1 [m-terphenyl]
Settings | Normal melting temperature [°C] | molar heat capacity at constant pressure [J/K/mol]
[1], 212 K, Crystal | – | 190.6
[1], 212 K, Glass | – | 193.8
[1], 217 K, Glass | – | 200
[1], 222 K, Crystal | – | 200.7
[1], 222 K, Glass | – | 206.2
[1], 227 K, Glass | – | 212.4
[1], 232 K, Crystal | – | 210.8
[1], 232 K, Glass | – | 218.6
[1], 237 K, Glass | – | 224.8
[1], 242 K, Crystal | – | 220.8
[1], 252 K, Crystal | – | 230.9
[1], 262 K, Crystal | – | 241
[1], 272 K, Crystal | – | 251.1
[1], 280 K, Liquid | – | 364.8
[1], 282 K, Crystal | – | 261.2
[1], 290 K, Liquid | – | 370.5
[1], 292 K, Crystal | – | 271.2
[1], 300 K, Liquid | – | 376.3
[1], 302 K, Crystal | – | 281.3
[1], 310 K, Liquid | – | 382.1
[1], 312 K, Crystal | – | 291.4
[1], 318 K, Crystal | – | 299.5
[1], 320 K, Liquid | – | 387.8
[1], 322 K, Crystal | – | 301.5
[1], 323 K, Crystal | – | 304.2
[1], 328 K, Crystal | – | 308.9
[1], 330 K, Crystal | – | 309.5
[1], 330 K, Liquid | – | 393.6
[1], 333 K, Crystal | – | 313.5
[1], 338 K, Crystal | – | 318.2
[1], 340 K, Liquid | – | 399.3
[1], 343 K, Crystal | – | 322.9
[1], 348 K, Crystal | – | 327.5
[1], 350 K, Liquid | – | 405.1
[1], 360 K, Liquid | – | 410.9
[1], 370 K, Liquid | – | 416.6
[1], 378 K, Liquid | – | 421.2
[3], Crystal, DTA | 88 | –

Settings | Glass transition temperature [°C] | Molar enthalpy of transition or fusion [kJ/mol]
[2] | – | 23.8
[3] | -17 | –

c1ccc(-c2ccccc2-c2ccccc2)cc1 [o-terphenyl]
[1]
Settings | molar heat capacity at constant pressure [J/K/mol]
212 K, Glass | 181.5
217 K, Glass | 187.8
222 K, Glass | 194
227 K, Glass | 200.3
232 K, Glass | 206.5
237 K, Glass | 212.8
242 K, Glass | 219
280 K, Liquid | 356.2
290 K, Liquid | 363.1
300 K, Liquid | 370
310 K, Liquid | 376.9
320 K, Liquid | 383.8
330 K, Liquid | 390.7
340 K, Liquid | 397.6
350 K, Liquid | 404.4

Settings | Glass transition temperature [°C]
[3] | -3
